Data taken from patent US9815796B2 (Merck Sharp & Dohme Corp., priority 2013, dated 2017).
Read-outs that look alike come from different tables or passages of the source.

Legend:
Rhesus PDE2A3 = Rhesus PDE2A3 (Macaca mulatta, UniProt B3VTJ2); test: PDE2 fluorescence polarization (IMAP FP) inhibition assay, rhesus enzyme; assay type: biochemical, rhesus macaque
Method in brief: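 IMAP FP (mP from parallel and perpendicular fluorescence against substrate-only control) was read ≥1 h after adding binding reagent. The preceding 60 min room-temperature reaction contained FAM-cAMP (50 nM) and cGMP (1 uM) in pH 7.2 Tris buffer with MgCl2 and DTT. Enzyme was supernatant of sonicated AD293 cells expressing rhesus PDE2A3; compounds were 3-fold titrated, DMSO 1% final.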

human PDE2A1 = human PDE2A1 (Homo sapiens (Human), UniProt O00408); test: IMAP FP PDE selectivity panel, human PDE2A1; assay type: biochemical
human PDE2A1, sequence (O00408 other isoform, or with tags, fused parts or gaps): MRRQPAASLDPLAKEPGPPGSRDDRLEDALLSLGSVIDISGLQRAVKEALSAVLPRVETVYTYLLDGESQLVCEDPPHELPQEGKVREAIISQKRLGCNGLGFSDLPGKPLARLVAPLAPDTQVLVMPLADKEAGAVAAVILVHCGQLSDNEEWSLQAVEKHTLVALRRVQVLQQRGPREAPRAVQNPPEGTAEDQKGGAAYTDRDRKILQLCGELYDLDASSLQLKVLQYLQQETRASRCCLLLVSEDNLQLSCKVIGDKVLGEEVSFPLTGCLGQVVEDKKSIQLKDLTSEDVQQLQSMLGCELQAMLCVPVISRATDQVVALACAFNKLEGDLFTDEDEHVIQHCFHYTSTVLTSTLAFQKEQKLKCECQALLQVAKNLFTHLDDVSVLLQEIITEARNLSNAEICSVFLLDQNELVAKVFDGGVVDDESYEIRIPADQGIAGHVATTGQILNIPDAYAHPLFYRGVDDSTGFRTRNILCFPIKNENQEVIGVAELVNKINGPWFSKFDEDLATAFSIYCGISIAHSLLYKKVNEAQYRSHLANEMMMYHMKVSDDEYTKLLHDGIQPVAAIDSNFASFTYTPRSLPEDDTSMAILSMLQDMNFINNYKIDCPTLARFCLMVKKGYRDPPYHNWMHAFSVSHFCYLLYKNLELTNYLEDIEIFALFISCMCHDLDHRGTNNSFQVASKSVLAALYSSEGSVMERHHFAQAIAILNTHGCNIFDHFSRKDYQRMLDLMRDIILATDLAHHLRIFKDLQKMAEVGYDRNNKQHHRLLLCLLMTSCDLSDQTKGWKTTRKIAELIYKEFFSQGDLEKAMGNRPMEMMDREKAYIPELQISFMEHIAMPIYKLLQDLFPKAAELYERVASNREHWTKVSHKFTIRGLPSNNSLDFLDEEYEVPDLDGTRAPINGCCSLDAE
Method in brief: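 IMAP FP format: substrate 50 nM FAM-cAMP plus 1000 nM cGMP, enzyme (insect-cell GST-tagged human PDE2A1) at ~20% conversion, 60 min reaction at room temperature. Apparent inhibition constants calculated from parallel/perpendicular fluorescence with KM 10,000 nM.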

[1] = Rhesus PDE2, Lab B, read-out: Rhesus PDE2 Ki (nM) - Lab B
[2] = Human PDE2, Lab B, read-out: Human PDE2 Ki (nM) - Lab B
[3] = Rhesus PDE2, Lab A, read-out: Rhesus PDE2 Ki (nM) - Lab A
[4] = Human PDE2, Lab A, read-out: Human PDE2 Ki (nM) - Lab A

Rhesus PDE2A3, sequence (B3VTJ2 1-941): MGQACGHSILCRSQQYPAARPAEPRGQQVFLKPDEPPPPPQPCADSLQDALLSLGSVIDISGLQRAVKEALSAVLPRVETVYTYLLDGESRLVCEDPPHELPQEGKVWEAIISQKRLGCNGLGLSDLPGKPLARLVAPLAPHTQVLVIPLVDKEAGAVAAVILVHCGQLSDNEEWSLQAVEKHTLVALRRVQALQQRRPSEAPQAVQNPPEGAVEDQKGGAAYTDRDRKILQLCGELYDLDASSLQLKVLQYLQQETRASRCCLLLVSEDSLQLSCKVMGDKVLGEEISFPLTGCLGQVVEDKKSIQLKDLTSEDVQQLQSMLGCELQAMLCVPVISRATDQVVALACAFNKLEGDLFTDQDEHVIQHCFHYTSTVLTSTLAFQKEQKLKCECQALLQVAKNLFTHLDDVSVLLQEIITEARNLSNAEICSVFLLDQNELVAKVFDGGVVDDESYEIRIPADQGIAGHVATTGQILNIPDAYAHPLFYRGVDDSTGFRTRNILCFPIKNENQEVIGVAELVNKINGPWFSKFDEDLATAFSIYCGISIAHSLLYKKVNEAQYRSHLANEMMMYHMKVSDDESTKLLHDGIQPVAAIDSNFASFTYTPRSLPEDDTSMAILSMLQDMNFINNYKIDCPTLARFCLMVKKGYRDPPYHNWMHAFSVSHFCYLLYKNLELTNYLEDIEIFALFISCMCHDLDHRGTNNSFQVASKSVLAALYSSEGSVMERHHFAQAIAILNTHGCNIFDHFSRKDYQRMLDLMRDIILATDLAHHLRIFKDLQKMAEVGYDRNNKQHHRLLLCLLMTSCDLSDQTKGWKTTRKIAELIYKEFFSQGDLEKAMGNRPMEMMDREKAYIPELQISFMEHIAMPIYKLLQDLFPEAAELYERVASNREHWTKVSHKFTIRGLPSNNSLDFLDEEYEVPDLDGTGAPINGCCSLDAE

SMILES | Ki (Rhesus PDE2A3; [1]) [nM] | Ki (human PDE2A1; [2]) [nM] | Ki (Rhesus PDE2A3; [3]) [nM] | Ki (human PDE2A1; [4]) [nM]
O=C(NC1(c2ccc(C(F)(F)F)cc2)CCCC1)c1cc(=O)[nH]c(-c2ccccc2)n1 [Example 415, 6-oxo-2-phenyl-N-{1-[4-(trifluoromethyl)phenyl]cyclopentyl}-1,6-dihydropyrimidine-4-carboxamide] | 29 | 30 | – | –
Cc1ccccc1-c1nc(C(=O)N[C@H](C)c2ccc(C(F)(F)F)cc2)cc(=O)[nH]1 [Example 141, 2-(2-methylphenyl)-6-oxo-N-{(1R)-1-[4-(trifluoromethyl)phenyl]ethyl}-1,6-dihydropyrimidine-4-carboxamide] | – | – | 136 | 110
COc1ccc2cc(C(C)NC(=O)c3cc(=O)[nH]c(C4CC4)n3)ccc2c1 (stereo not shown) [Example 192, 2-cyclopropyl-N-[1-(6-methoxynaphthalen-2-yl)ethyl]-6-oxo-1,6-dihydropyrimidine-4-carboxamide] | – | – | 151 | 81
COc1ccc(Cc2nc(C(=O)N[C@@H](c3ccc(S(F)(F)(F)(F)F)cc3)C(C)C)cc(=O)[nH]2)cc1 [Example 471, 2-(4-methoxybenzyl)-N-[(1R)-2-methyl-1-[4-(pentafluoro-λ^6-sulfanyl)phenyl]propyl}-6-oxo-1,6-dihydropyrimidine-4-carboxamide] | 1.5 | 1.5 | – | –
Cc1nc(C(=O)N[C@@H](c2ccc(C(F)(F)F)cc2F)C(C)(C)C)cc(=O)[nH]1 [Example 617] | 4.2 | 4 | – | –
O=C(N[C@@H](c1ccc(SC(F)(F)F)c(F)c1)C1CC1)c1cc(=O)[nH]c(-c2ccccc2)n1 [Example 417, N-[(R)-cyclopropyl{3-fluoro-4-[(trifluoromethyl)sulfanyl]phenyl}methyl]-6-oxo-2-phenyl-1,6-dihydropyrimidine-4-carboxamide] | 12 | 9.8 | – | –
Cc1nc(C(=O)N[C@@H](c2ccc(SC(F)(F)F)cc2)C2CC2)cc(=O)[nH]1 [Example 41, N-[(R)-cyclopropyl{4-[(trifluoromethyl)sulfanyl]phenyl}methyl]-2-methyl-6-oxo-1,6-dihydropyrimidine-4-carboxamide] | – | – | 9.2 | 5.2
CC(C)(C)[C@@H](NC(=O)c1cc(=O)[nH]c(-c2ncccn2)n1)c1ccc(OC(F)F)cc1 [Example 450, N-{(1R)-1-[4-(difluoromethoxy)phenyl]-2,2-dimethylpropyl}-6-oxo-1,6-dihydro-2,2′-bipyrimidine-4-carboxamide] | 23 | 21 | – | –
O=C(N[C@@H](c1ccc(OC(F)F)cc1)C1CC1)c1cc(=O)[nH]c(-c2ccccc2)n1 [Example 448, N-{(R)-cyclopropyl[4-(difluoromethoxy)phenyl]methyl}-6-oxo-2-phenyl-1,6-dihydropyrimidine-4-carboxamide] | 13 | 12 | – | –
Cc1nc(C(=O)NC(c2ccc(SC(F)(F)F)c(F)c2)C2(C)CC2)cc(=O)[nH]1 (single isomer, unassigned) [Example 702, (R)- or (S)-N-((3-fluoro-4-((trifluoromethyl)thio)phenyl)(1-methylcyclopropyl)methyl)-2-methyl-6-oxo-1,6-dihydropyrimidine-4-carboxamide] | 8.7 | 7.2 | – | –
O=C(N[C@@H](c1ccc(SC(F)(F)F)c(F)c1)C1CC1)c1cc(=O)[nH]c(C2CC2)n1 [Example 434] | 6.7 | 7.9 | – | –
C[C@@H](NC(=O)c1cc(=O)[nH]c(-c2ncccn2)n1)c1ccc(C(F)(F)F)cc1 [Example 291, 6-oxo-N-{(1R)-1-[4-(trifluoromethyl)phenyl]ethyl}-1,6-dihydro-2,2′-bipyrimidine-4-carboxamide] | – | – | 11 | 10
O=C(N[C@@H](c1ccc(C(F)(F)F)cc1)C1CC1)c1cc(=O)[nH]c(-c2ccccc2)n1 [Example 177, N-{(R)-cyclopropyl[4-(trifluoromethyl)phenyl]methyl}-6-oxo-2-phenyl-1,6-dihydropyrimidine-4-carboxamide] | – | – | 3.8 | 3.1
C[C@@H](NC(=O)c1cc(=O)[nH]c(C2CC2)n1)c1ccc(C(F)(F)F)c(Cl)c1 [Example 232, N-{(1R)-1-[3-chloro-4-(trifluoromethyl)phenyl]ethyl}-2-cyclopropyl-6-oxo-1,6-dihydropyrimidine-4-carboxamide] | – | – | 29 | 17
COc1ccc(C(C)(C)c2nc(C(=O)N[C@@H](c3ccc(SC(F)(F)F)c(F)c3)C3CC3)cc(=O)[nH]2)cc1 [Example 497, N-[(R)-cyclopropyl{3-fluoro-4-[(trifluoromethyl)sulfanyl]phenyl}methyl]-2-[1-(4-methoxyphenyl)-1-methylethyl]-6-oxo-1,6-dihydropyrimidine-4-carboxamide] | 80 | 60 | – | –
CC(C)(C)[C@@H](NC(=O)c1cc(=O)[nH]c(-c2ncccn2)n1)c1ccc(OC(F)(F)F)cc1 [Example 461, N-{(1R)-2,2-dimethyl-1-[4-(trifluoromethoxy)phenyl]propyl}-6-oxo-1,6-dihydro-2,2′-bipyrimidine-4-carboxamide] | 7.5 | 7.8 | – | –
Cc1nc(C(=O)N[C@@H](c2ccc(OC(F)(F)F)cc2)C(C)C)cc(=O)[nH]1 [Example 32, 2-methyl-N-{(1R)-2-methyl-1-[4-(trifluoromethoxy)phenyl]propyl}-6-oxo-1,6-dihydropyrimidine-4-carboxamide] | – | – | 11 | 5.1
COc1ccc(Cc2nc(C(=O)N[C@@H](c3ccc(S(F)(F)(F)(F)F)cc3)C(C)C)cc(=O)[nH]2)cc1F [Example 513, 2-(3-fluoro-4-methoxybenzyl)-N-{(1R)-2-methyl-1-[4-(pentafluoro-λ^6-sulfanyl)phenyl]propyl}-6-oxo-1,6-dihydropyrimidine-4-carboxamide] | 2.1 | 1.9 | – | –
CC(NC(=O)c1cc(=O)[nH]c(-c2ccccc2)n1)c1ccc(C2CC2)cc1 (stereo not shown) [Example 164, N-[1-(4-cyclopropylphenyl)ethyl]-6-oxo-2-phenyl-1,6-dihydropyrimidine-4-carboxamide] | – | – | 9 | 9.4
Cc1nc(C(=O)N[C@H](C)c2ccc(C(F)(F)F)cc2)cc(=O)[nH]1 [Example 13, 2-methyl-6-oxo-N-{(1R)-1-[4-(trifluoromethyl)phenyl]ethyl}-1,6-dihydropyrimidine-4-carboxamide] | 48 | 48 | 50 | 33
O=C(NCc1ccc(C(F)(F)F)cc1)c1cc(=O)[nH]c(-c2ccccc2)n1 [Example 371, 6-oxo-2-phenyl-N-[4-(trifluoromethyl)benzyl]-1,6-dihydropyrimidine-4-carboxamide] | 150 | 117 | 68 | –
Cc1nc(C(=O)N[C@H](C)c2ccc(S(F)(F)(F)(F)F)cc2)cc(=O)[nH]1 [Example 37, 2-methyl-6-oxo-N-{(1R)-1-[4-(pentafluoro-λ^6-sulfanyl)phenyl]ethyl}-1,6-dihydropyrimidine-4-carboxamide] | 19 | 27 | 17 | 14
O=C(NC1(c2ccc(C(F)(F)F)cc2)CC1)c1cc(=O)[nH]c(-c2ccccc2)n1 [Example 276, 6-oxo-2-phenyl-N-{1-[4-(trifluoromethyl)phenyl]cyclopropyl}-1,6-dihydropyrimidine-4-carboxamide] | – | – | 4.2 | 3.8
CCc1nc(C(=O)NC2(c3ccc(C(F)(F)F)c(F)c3)CC2)cc(=O)[nH]1 [Example 601, 2-ethyl-N-{1-[3-fluoro-4-(trifluoromethyl)phenyl]cyclopropyl}-6-oxo-1,6-dihydropyrimidine-4-carboxamide] | 8 | 8.2 | – | –
CC[C@@H](NC(=O)c1cc(=O)[nH]c(-c2ncccn2)n1)c1ccc(SC(F)(F)F)c(F)c1 [Example 263, N-[(1R)-1-{3-fluoro-4-[(trifluoromethyl)sulfanyl]phenyl}propyl]-6-oxo-1,6-dihydro-2,2′-bipyrimidine-4-carboxamide] | 1.9 | 2.1 | 1.5 | –
COc1ccc2cc(C(C)NC(=O)c3cc(=O)[nH]c(-c4ncccn4)n3)ccc2c1 (stereo not shown) [Example 84, N-[1-(6-methoxynaphthalen-2-yl)ethyl]-6-oxo-1,6-dihydro-2,2′-bipyrimidine-4-carboxamide] | – | – | 117 | 28
C[C@@H](NC(=O)c1cc(=O)[nH]c(C2CC2)n1)c1ccc(OC(F)(F)F)cc1F [Example 297, 2-cyclopropyl-N-{(1R)-1-[2-nuoro-4-(trifluoromethoxy)phenyl]ethyl}-6-oxo-1,6-dihydropyrimidine-4-carboxamide] | – | – | 30 | 16
O=C(NCc1ccc(S(F)(F)(F)(F)F)cc1)c1cc(=O)[nH]c(-c2ccccc2)n1 [Example 377, 6-oxo-N-[4-(pentafluoro-λ^6-sulfanyl)benzyl]-2-phenyl-1,6-dihydropyrimidine-4-carboxamide] | – | 58 | 28 | –
CC[C@@H](NC(=O)c1cc(=O)[nH]c(Cc2ccc(OC)c(F)c2)n1)c1ccc(OC(F)(F)F)c(F)c1 [Example 528, 2-(3-fluoro-4-methoxybenzyl)-N-{(1R)-1-[3-fluoro-4-(trifluoromethoxy)phenyl]propyl}-6-oxo-1,6-dihydropyrimidine-4-carboxamide] | 1.2 | 1.1 | – | –
